Data set [1] is described as follows: Time resolved luminescence measurement of terbium (III) complexes (luminescence, lifetime, water coordination number). The note with it: terbium (III) complex. It counts as physicochemical. The method, then:
Compounds 8, 11 and 15 each were dissolved in dimethyl sulfoxide to prepare 10 mM stock solutions. In addition, terbium (III) chloride hexahydrate was dissolved in dimethyl sulfoxide to prepare a 10 mM stock solution. Equal volumes of the terbium (III) chloride hexahydrate solution prepared were added to the individually prepared solutions of Compounds 8, 11 and 15, and, the resulting solutions were left standing for 30 minutes at room temperature to prepare terbium (III) complexes of Compounds 8, 11 and 15. The solutions were diluted using a 100 mM HEPES buffer (pH 7.4), and the luminescences of 8 μM solutions were measured.
(§1) Luminescences were measured using a time resolved measurement. Luminescences were measured for all complexes at an excitation wavelength of 330 nm, a delay time of 0.05 ms and a gate time of 1.00 ms. In addition, the luminescence lifetimes were measured using an excitation wavelength of […], and the luminescence wavelengths were measured using 545 nm for individual terbium complexes and 615 nm for individual europium complexes [100 mM HEPES buffer (pH 7.4) in each 8 μM].
The luminescence spectra of the terbium (III) complexes of Compounds 8, 11 and 15 are shown in FIG. 11, and their luminescence life and water coordination numbers are shown in Table 1.

Data set [2] can be described thus: Time resolved luminescence measurement of europium (III) complexes (luminescence, lifetime, water coordination number). It counts as physicochemical. The note with it: europium (III) complex. The method, then:
Compounds 8, 11 and 15 each were dissolved in dimethylsulfoxide to prepare 10 mM stock solutions. In addition, europium (III) chloride hexahydrate was dissolved in dimethylsulfoxide to prepare a 10 mM stock solution. Equal volumes of the europium (III) chloride hexahydrate solution were added to the individually prepared solutions of Compounds 8, 11 and 15, and the resulting solutions were left standing for 30 minutes at room temperature to prepare the europium (III) complexes of the Compounds 8, 11 and 15. These solutions were diluted using 100 mM HEPES buffer solution (pH 7.4), and the luminescences of the 8 μM solutions were measured.
as §1
In addition, the luminescence spectra of the europium (III) complexes of Compounds 8, 11 and 15 are shown in FIG. 12, and their luminescence life and water coordination numbers are shown in Table 2.

Where [3] appears, read: 8 μM, 100 mM HEPES buffer (pH 7.4), excitation 330 nm, delay time 0.05 ms, gate time 1.00 ms.

In the case of `Cc1cc(=O)[nH]c2cc(NC(=O)CN(CCN(CCN(CC(=O)O)CC(=O)O)CC(=O)O)CC(=O)O)ccc12` [DTPA-cs124], the Water coordination number came out at 1.23 in data set [1] and 1.34 in data set [2]. Also, the “Life time (H2O)” value in data set [1] (8 μM in 100 mM HEPES buffer (pH 7.4), luminescence wavelength 545 nm, H2O) came out at 1.46 ms; in data set [2] (8 μM in 100 mM HEPES buffer (pH 7.4), luminescence wavelength 615 nm, H2O) it was 0.59 ms. In addition, the “Luminescence emission (intensity)” value in data set [1] (setting [3]) and in data set [2] (setting [3]) was “almost identical” throughout. Also, the “Life time (D2O)” value in data set [1] (luminescence wavelength 545 nm, D2O) is 2.55 ms; in data set [2] (luminescence wavelength 615 nm, D2O), 2.38 ms.

The values are drawn from patent US20060149043A1, “Fluorescent lanthadine complex” (Japan Science and Technology Agency, priority 2003, published 2006).
